Measurements from article PMC5583658, “6,7-dimethoxy-1,2,3,4-tetrahydro-isoquinoline-3-carboxylic acid attenuates heptatocellular carcinoma in rats with NMR-based metabolic perturbations” (Future Science OA, 2017).

Experiments:
albino Wistar rats = experiment: Acute oral toxicity study (OECD Guidelines 423); assay type: in vivo; details: for Bilirubin / Bilverdin / CAT / MDA / PC / Reduced GSH / SOD: liver; for Bilirubin / Bilverdin / CAT / MDA / PC / Reduced GSH / SOD / AST / ALT: normal rats, mean±SD, n=6; for AST / ALT: plasma
Experimental: Acute oral toxicity study of M1 was performed as per revised Organization for Economic Cooperation and Development Guidelines 423. Animal Ethical Committee approved this study (Approval No. SDCOP&VS/AH/CPCSE01/017/R2). M1 was dissolved in 0.25% carboxymethyl cellulose (CMC) and administered orally at the dose of 25, 50, 100, 250 mg/kg body weight to albino Wistar rats for 4 weeks (n = 6) and the animals were observed every day for any toxic manifestations.

[1] = system: diethylnitrosamine-induced hepatocarcinogenic rats; experiment: Oxidative stress parameters (SOD, CAT, GSH, PC, MDA) in liver of DEN-induced HCC rats; assay type: in vivo, albino Wistar rats; details: for CAT / MDA / PC / Reduced GSH / SOD: 15 days, mean ± SD, n = 6
Experimental: All animals were randomly divided into five groups of six animals each. Drugs were suspended in 0.25% CMC, subjected to 28 days’ treatment orally and divided as follows: Group I: 0.25% CMC (2 ml/kg), Group II: DEN (8 mg/kg, intraperitoneally), Group III: DEN+5-fluorouracil (5-FU, 10 mg/kg, intraperitoneally), Group IV: DEN+M1 (50 mg/kg, orally) and Group V: DEN+M1 (100 mg/kg, orally). The procedure to induce HCC was adopted from a paper by Song et al. where it is shown that DEN produces HCC at 8 mg/kg intraperitoneal injection for 28 days to albino Wistar rats. After initial 1 week of adaptive inhabitation, all rats of group II–V were administered with DEN (8 mg/kg, intraperitoneally) for 28 days. After 28 days, 5-FU and M1 were given for 15 days as mentioned above for group III–V. At the end of the experimental period, animals were sacrificed by cervical decapitation and livers were dissected out immediately, rinsed in ice cold saline and stored at -20°C for further studies. The serum was collected, processed and stored for further analysis.
Liver function biomarkers like aspartate aminotransferase (AST), alanine aminotransferase (ALT) were also measured in serum using commercially available kit from Ebra Diagonesis Pvt Ltd, Germany. The oxidative parameters like superoxide dismutase (SOD), thiobarbituric acid reactive substances (TBARS), protein carbonyl (PC), SOD [14], tissue catalase (CAT) and glutathione (GSH) levels were estimated in liver tissue in the similar experiment. The total protein content of each sample was measured using the Bradford reagent and bovine serum albumin was used as a standard. Conjugated bilirubin and biliverdin in liver were measured as per the following procedure stated earlier in the literature with slight modifications.

Which “changes in ALT, AST, bilirubin, biliverdin, SOD, CAT, PC, GSH, TBARS as compared with normal control” value (albino Wistar rats; M1 dose ranging from 25 to 250 mg/kg orally) does the source give for `COc1cc2c(cc1OC)CC(C(=O)O)NC2` (stereo not shown) [M1, 6,7-dimethoxy-1,2,3,4-tetrahydro-isoquinoline-3-carboxylic acid] here?
Its value is “no significant changes”.

And the Bilirubin (albino Wistar rats; M1 25 mg/kg orally)?
The Bilirubin was 19.24±1.27 ng/µg of protein.

And the Bilverdin (albino Wistar rats; M1 25 mg/kg orally)?
Its Bilverdin is 7.15±0.78 ng/µg of protein.

What about the CAT (albino Wistar rats; M1 25 mg/kg orally) of the same molecule?
The CAT was 8.22 ± 1.91 nM of H2O2 /min/μg of protein.

What about the MDA (albino Wistar rats; M1 25 mg/kg orally) of the same molecule?
The MDA was 9.25 ± 2.87 nM/μg of protein.

What about the PC (albino Wistar rats; M1 25 mg/kg orally) of the same molecule?
The PC was 0.68 ± 0.17 µM/μg of protein.

What about the “Reduced GSH” value (albino Wistar rats; M1 25 mg/kg orally) of the same molecule?
Its value is 4.94 ± 1.17 µM/μg of protein.

And the SOD (albino Wistar rats; M1 25 mg/kg orally)?
Its SOD is 14.27 ± 2.88 U/μg of protein.

What about the Bilirubin (albino Wistar rats; M1 50 mg/kg orally) of the same molecule?
The Bilirubin was 19.11±3.19 ng/µg of protein.

And the Bilverdin (albino Wistar rats; M1 50 mg/kg orally)?
Its Bilverdin is 5.99±1.04 ng/µg of protein.

And the CAT (albino Wistar rats; M1 50 mg/kg orally)?
The CAT was 6.94 ± 2.06 nM of H2O2 /min/μg of protein.

And the MDA (albino Wistar rats; M1 50 mg/kg orally)?
Its MDA is 10.11 ± 0.96 nM/μg of protein.

And the PC (albino Wistar rats; M1 50 mg/kg orally)?
The PC was 0.62 ± 0.05 µM/μg of protein.

What about the “Reduced GSH” value (albino Wistar rats; M1 50 mg/kg orally) of the same molecule?
The value was 5.42 ± 1.34 µM/μg of protein.

And the SOD (albino Wistar rats; M1 50 mg/kg orally)?
The SOD was 9.78 ± 1.17 U/μg of protein.

What about the Bilirubin (albino Wistar rats; M1 100 mg/kg orally) of the same molecule?
The Bilirubin was 18.24±2.55 ng/µg of protein.

And the Bilverdin (albino Wistar rats; M1 100 mg/kg orally)?
The Bilverdin was 7.62±1.45 ng/µg of protein.

What about the CAT (albino Wistar rats; M1 100 mg/kg orally) of the same molecule?
Its CAT is 8.45 ± 1.59 nM of H2O2 /min/μg of protein.

What about the MDA (albino Wistar rats; M1 100 mg/kg orally) of the same molecule?
Its MDA is 11.22 ± 1.91 nM/μg of protein.

What about the PC (albino Wistar rats; M1 100 mg/kg orally) of the same molecule?
Its PC is 0.49 ± 0.07 µM/μg of protein.

And the “Reduced GSH” value (albino Wistar rats; M1 100 mg/kg orally)?
The value was 5.78 ± 1.65 µM/μg of protein.

And the SOD (albino Wistar rats; M1 100 mg/kg orally)?
Its SOD is 8.97 ± 1.95 U/μg of protein.

And the Bilirubin (albino Wistar rats; M1 250 mg/kg orally)?
Its Bilirubin is 20.13±2.56 ng/µg of protein.

What about the Bilverdin (albino Wistar rats; M1 250 mg/kg orally) of the same molecule?
The Bilverdin was 7.91±0.99 ng/µg of protein.

And the CAT (albino Wistar rats; M1 250 mg/kg orally)?
Its CAT is 7.38 ± 1.28 nM of H2O2 /min/μg of protein.

And the MDA (albino Wistar rats; M1 250 mg/kg orally)?
Its MDA is 12.33 ± 2.17 nM/μg of protein.

What about the PC (albino Wistar rats; M1 250 mg/kg orally) of the same molecule?
The PC was 0.48 ± 0.08 µM/μg of protein.

What about the “Reduced GSH” value (albino Wistar rats; M1 250 mg/kg orally) of the same molecule?
Its value is 6.22 ± 1.07 µM/μg of protein.

And the SOD (albino Wistar rats; M1 250 mg/kg orally)?
Its SOD is 9.12 ± 1.65 U/μg of protein.

What about the safe dose (albino Wistar rats; oral, albino Wistar rats, 4 weeks) of the same molecule?
The safe dose was “up to 250 mg/kg body weight”.

What about the AST (albino Wistar rats; M1 25 mg/kg orally) of the same molecule?
Its AST is 11.33 ± 3.67 U/L.

And the ALT (albino Wistar rats; M1 50 mg/kg orally)?
Its ALT is 33.16± 4.22 U/L.

And the AST (albino Wistar rats; M1 50 mg/kg orally)?
The AST was 11.90 ± 1.69 U/L.

And the ALT (albino Wistar rats; M1 100 mg/kg orally)?
The ALT was 33.24 ± 1.57 U/L.

And the AST (albino Wistar rats; M1 100 mg/kg orally)?
Its AST is 14.33 ± 1.28 U/L.

And the ALT (albino Wistar rats; M1 250 mg/kg orally)?
Its ALT is 35.11 ± 2.84 U/L.

And the AST (albino Wistar rats; M1 250 mg/kg orally)?
The AST was 14.92 ± 3.52 U/L.

What about the CAT ([1]; DEN+M1 50 mg/kg orally) of the same molecule?
The CAT was 6.51 ± 0.29 nM of H2O2/min/μg of protein.

And the MDA ([1]; DEN+M1 50 mg/kg orally)?
Its MDA is 51.60 ± 1.009 nM/μg of protein.

What about the PC ([1]; DEN+M1 50 mg/kg orally) of the same molecule?
Its PC is 0.46 ± 0.08 μM/μg of protein.

What about the “Reduced GSH” value ([1]; DEN+M1 50 mg/kg orally) of the same molecule?
The value was 5.40 ± 0.42 μM/μg of protein.

What about the SOD ([1]; DEN+M1 50 mg/kg orally) of the same molecule?
The SOD was 5.92 ± 0.72 U/μg of protein.

What about the CAT ([1]; DEN+M1 100 mg/kg orally) of the same molecule?
The CAT was 7.52 ± 0.7 nM of H2O2/min/μg of protein.

What about the MDA ([1]; DEN+M1 100 mg/kg orally) of the same molecule?
Its MDA is 45.20 ± 1.05 nM/μg of protein.

And the PC ([1]; DEN+M1 100 mg/kg orally)?
The PC was 0.40 ± 0.02 μM/μg of protein.

What about the “Reduced GSH” value ([1]; DEN+M1 100 mg/kg orally) of the same molecule?
The value was 6.69 ± 0.30 μM/μg of protein.

And the SOD ([1]; DEN+M1 100 mg/kg orally)?
Its SOD is 6.14 ± 0.17 U/μg of protein.

And the GSH level ([1]; M1 50 mg/kg)?
The GSH level was ~5.40 µM.

And the GSH level ([1]; M1 100 mg/kg)?
The GSH level was ~6.69 µM.

What about the “SOD level as compared with normal group” value ([1]; M1-treated groups (toxic control 20–30%)) of the same molecule?
Its value is 70–80%.

What about the PC formation ([1]; M1-treated rats, text value (toxic control ∼0.96 μM)) of the same molecule?
Its PC formation is ~0.40 µM.

What about the MDA formation ([1]; after M1 therapy, text value (toxic control approximately 98 nM)) of the same molecule?
Its MDA formation is ~50 nM.
